Data set [1] in a line: Spontaneous hydrolysis of 7-modified sialyl-galactose conjugates by 1H-NMR. The following applies: high salt, dilute acid (25 mM HCl). It is filed as physicochemical.
The target of data set [2] is Cst-I (Campylobacter jejuni, UniProt Q9RGF1).
For data set [3], the target named is T1, Pm0188h (Pasteurella multocida, UniProt Q15KI8).
T1 sequence (Q15KI8 26-412): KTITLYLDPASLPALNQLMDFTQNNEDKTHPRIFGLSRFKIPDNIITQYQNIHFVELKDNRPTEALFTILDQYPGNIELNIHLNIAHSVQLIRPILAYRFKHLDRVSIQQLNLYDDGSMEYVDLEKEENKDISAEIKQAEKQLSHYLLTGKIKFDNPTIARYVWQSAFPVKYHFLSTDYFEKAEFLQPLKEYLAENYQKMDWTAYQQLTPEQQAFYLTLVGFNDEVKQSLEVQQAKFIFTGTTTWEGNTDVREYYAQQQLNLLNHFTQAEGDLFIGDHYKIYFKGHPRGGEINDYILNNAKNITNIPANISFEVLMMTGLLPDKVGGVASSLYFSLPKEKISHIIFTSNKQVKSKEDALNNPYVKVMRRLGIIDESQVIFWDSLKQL
The experiment in a line: Sialyltransferase kinetics, CMP release assay, transfer to lactose by Pm0188h.

Data set [4] can be described thus: Spontaneous hydrolysis of CMP 7-modified sialic acids by 1H-NMR. It is filed as physicochemical.
The target in data set [5] is T2, T. rangeli (GH33) sialidase (TrSA) (Trypanosoma rangeli, UniProt O44049).
T2 sequence (O44049 23-660): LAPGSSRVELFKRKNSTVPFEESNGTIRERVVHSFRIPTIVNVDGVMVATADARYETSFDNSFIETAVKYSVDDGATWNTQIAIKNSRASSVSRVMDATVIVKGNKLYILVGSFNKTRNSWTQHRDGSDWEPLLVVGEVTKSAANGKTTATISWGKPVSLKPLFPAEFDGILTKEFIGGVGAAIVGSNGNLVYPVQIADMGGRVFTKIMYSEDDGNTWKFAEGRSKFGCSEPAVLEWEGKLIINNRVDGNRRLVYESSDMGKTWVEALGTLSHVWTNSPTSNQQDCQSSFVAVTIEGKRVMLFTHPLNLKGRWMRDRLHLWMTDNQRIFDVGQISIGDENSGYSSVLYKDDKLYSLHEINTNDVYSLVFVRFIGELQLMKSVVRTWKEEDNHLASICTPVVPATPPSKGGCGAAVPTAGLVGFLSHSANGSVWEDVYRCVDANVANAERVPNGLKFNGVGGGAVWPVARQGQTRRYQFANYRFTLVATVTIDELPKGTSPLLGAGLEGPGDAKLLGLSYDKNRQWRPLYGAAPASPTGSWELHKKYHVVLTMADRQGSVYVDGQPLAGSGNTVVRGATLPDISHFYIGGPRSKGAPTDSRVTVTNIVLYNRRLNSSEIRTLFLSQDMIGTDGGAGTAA
The data set is described as follows: Sialidase kinetics, β-galactosidase coupled assay, T. rangeli sialidase.

Data set [6] addresses C. perfringens (GH33) sialidase (NanI) (Clostridium perfringens, UniProt A0A0H2YQR1). It is filed as biochemical.
In data set [7] the target is influenza neuraminidase N9 (GH34) (Influenza A virus, UniProt P03472). It is filed as biochemical. To be noted: pH 5.9.

As usually defined, the Km is the substrate concentration at which the rate is half of its maximum.

Where a name gives a salt, the structure may show the parent alone. Read-outs that look alike come from different tables or passages of the source.

Sequence of C. perfringens (GH33) sialidase (NanI) (A0A0H2YQR1 1-694): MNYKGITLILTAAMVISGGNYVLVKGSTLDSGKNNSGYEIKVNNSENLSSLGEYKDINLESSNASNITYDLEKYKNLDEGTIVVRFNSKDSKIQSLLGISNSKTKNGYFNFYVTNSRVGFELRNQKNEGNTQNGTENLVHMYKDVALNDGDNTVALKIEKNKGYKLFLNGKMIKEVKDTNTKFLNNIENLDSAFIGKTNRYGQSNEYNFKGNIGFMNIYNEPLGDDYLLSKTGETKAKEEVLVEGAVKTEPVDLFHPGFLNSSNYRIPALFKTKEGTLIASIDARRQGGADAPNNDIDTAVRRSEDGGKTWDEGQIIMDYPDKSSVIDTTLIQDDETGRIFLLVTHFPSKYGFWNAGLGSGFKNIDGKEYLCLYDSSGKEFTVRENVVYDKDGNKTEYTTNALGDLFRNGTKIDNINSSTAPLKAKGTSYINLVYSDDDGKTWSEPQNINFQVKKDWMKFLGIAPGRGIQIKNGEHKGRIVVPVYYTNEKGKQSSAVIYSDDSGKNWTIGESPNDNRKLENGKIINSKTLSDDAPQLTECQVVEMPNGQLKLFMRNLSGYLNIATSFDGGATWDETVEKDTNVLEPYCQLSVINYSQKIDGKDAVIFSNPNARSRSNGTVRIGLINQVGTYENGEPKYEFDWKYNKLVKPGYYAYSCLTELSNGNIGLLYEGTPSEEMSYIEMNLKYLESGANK
Sequence of Cst-I (Q9RGF1 1-285 limits assumed): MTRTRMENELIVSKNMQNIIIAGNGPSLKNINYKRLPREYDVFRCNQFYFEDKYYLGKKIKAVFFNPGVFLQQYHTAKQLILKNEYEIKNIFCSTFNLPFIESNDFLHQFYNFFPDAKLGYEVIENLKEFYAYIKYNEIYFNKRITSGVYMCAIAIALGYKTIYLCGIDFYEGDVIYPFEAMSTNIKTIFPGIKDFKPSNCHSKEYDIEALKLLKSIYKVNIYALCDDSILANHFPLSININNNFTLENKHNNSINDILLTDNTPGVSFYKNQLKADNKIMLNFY
Sequence of influenza neuraminidase N9 (GH34) (P03472 whole entry, looked up): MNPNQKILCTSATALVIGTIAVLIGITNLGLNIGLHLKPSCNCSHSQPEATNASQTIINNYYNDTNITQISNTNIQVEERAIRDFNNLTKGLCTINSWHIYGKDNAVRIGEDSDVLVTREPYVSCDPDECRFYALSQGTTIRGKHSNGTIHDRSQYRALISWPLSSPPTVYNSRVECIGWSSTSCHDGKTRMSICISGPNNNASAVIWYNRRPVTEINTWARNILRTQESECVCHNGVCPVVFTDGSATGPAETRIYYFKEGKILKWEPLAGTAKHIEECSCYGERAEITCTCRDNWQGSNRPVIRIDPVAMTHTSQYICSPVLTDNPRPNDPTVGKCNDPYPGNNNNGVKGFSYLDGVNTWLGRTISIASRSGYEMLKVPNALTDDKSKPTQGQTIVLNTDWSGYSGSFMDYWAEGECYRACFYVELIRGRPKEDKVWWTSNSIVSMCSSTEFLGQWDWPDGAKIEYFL

Regarding `CC(=O)NC1C(O)CC(OC2C(O)C(CO)OC(Oc3ccc4c(C)cc(=O)oc4c3)C2O)(C(=O)O)OC1C(O)C(O)CO` [compound 19, 4-Methylumbelliferyl (5-acetamido-3,5-dideoxy-D-glycero-α-D-galacto-non2-ulopyranosylonic acid)-(2→3)-β-D-galactopyranoside, reference compound], the “spontaneous hydrolysis rate constant” value in data set [1] is reported as 1.45 (±0.8) h-1.
Take `CC(=O)N[C@H]1[C@H](C(F)(F)[C@H](O)CO)O[C@](OP(=O)(O)OC[C@H]2O[C@@H](n3ccc(N)nc3=O)[C@H](O)[C@@H]2O)(C(=O)O)C[C@@H]1O` [compound 15, 5-Acetamido-3,5,7-trideoxy-2-(hydrogen 5′-cytidylate)-7,7-difluoro-D-glycero-b-D-galacto-2-nonulopyranosidic acid diammonium salt]: the “kcat (rel)” value in data set [2] came out at 0.25; in data set [3], 0.06. The compound also yielded a krel in data set [4] of 0.01. Also, in data set [4] (pH 7.2), the Hydrolysis rate constant is on record as 0.0084 (±0.0008) h^−1.
Consider `CC(=O)N[C@H]1[C@H]([C@H](O)[C@H](O)CO)O[C@](OP(=O)(O)OC[C@H]2O[C@@H](n3ccc(N)nc3=O)[C@H](O)[C@@H]2O)(C(=O)O)C[C@@H]1O` [compound 16, CMP-NeuNAc, reference compound], for which the “kcat (rel)” value in data set [2] and in data set [3] was 1 in each case. In data set [4] (spontaneous hydrolysis rate relative to CMP-NeuNAc), this compound had a krel of 1. Besides, the Hydrolysis rate constant in data set [4] (spontaneous hydrolysis, high salt pH 7.2 buffer, 1H-NMR) was 0.94 (±0.01) h^−1.
As to `CC(=O)N[C@H]1[C@H]([C@H](F)[C@H](O)CO)O[C@@](O[C@H]2[C@@H](O)[C@@H](CO)O[C@@H](Oc3ccccc3[N+](=O)[O-])[C@@H]2O)(C(=O)O)C[C@@H]1O` [compound 18, ortho-Nitrophenyl (5-Acetamido-3,5,7-trideoxy-7-fluoro-D-glycero-α-D-galacto-non2-ulopyranosylonic acid)-(2→3)-β-D-galactopyranoside], the “saturation of enzyme by substrate” value in data set [5] and in data set [6] was “Saturation was not achieved” in each case. Besides, the Michaelis constant (Km) in data set [7] was determined as 390 µM. Further, the Vm in data set [7] was 4.6 (±0.2) μM min^−1.
Turning to `CC(=O)N[C@H]1[C@H]([C@H](F)[C@H](O)CO)O[C@](OP(=O)(O)OC[C@H]2O[C@@H](n3ccc(N)nc3=O)[C@H](O)[C@@H]2O)(C(=O)O)C[C@@H]1O` [compound 14, 5-Acetamido-3,5,7-trideoxy-2-(hydrogen 5′-cytidylate)-7-fluoro-D-glycero-b-D-galacto-2-nonulopyranosidic acid diammonium salt], the “kcat (rel)” value in data set [2] was determined as 0.77; in data set [3], 0.54. The compound further came in with a krel in data set [4] of 0.33. The Hydrolysis rate constant in data set [4] (pH 7.2) is 0.313 (±0.002) h^−1.
Turning to `CC(=O)N[C@H]1[C@H]([C@H](O)[C@H](O)CO)O[C@@](O[C@H]2[C@@H](O)[C@@H](CO)O[C@@H](Oc3ccccc3[N+](=O)[O-])[C@@H]2O)(C(=O)O)C[C@@H]1O` [compound 17, ortho-Nitrophenyl (5-Acetamido-3,5-dideoxy-D-glycero-α-D-galacto-non2-ulopyranosylonic acid)-(2→3)-β-D-galactopyranoside, reference compound], the kcat in data set [5] (sialidase substrate, 30° C., pH 6.0) is 83 (±4) min^−1. In data set [6] (pH 6.7), the Michaelis-Menten constant (Km) turned out to be 800 µM and the kcat is on record as 78 (±2) min^−1. Further, in data set [7], the Km was 830 µM and the Vm is reported as 17.5 (±0.5) μM min^−1.
As for `CC(=O)NC1C(O)CC(OC2C(O)C(CO)OC(Oc3ccc4c(C)cc(=O)oc4c3)C2O)(C(=O)O)OC1C(F)C(O)CO` [compound 20, 4-Methylumbelliferyl (5-acetamido-3,5,7-trideoxy-7-fluoro-D-glycero-α-D-galacto-non2-ulopyranosylonic acid)-(23)-β-D-galactopyranoside], the “spontaneous hydrolysis rate constant” value in data set [1] is 0.29 (±0.01) h-1.

(Values after patent US10023601B2, “Hydrolysis resistant sialic acid derivatives and methods for their use” (The University of British Columbia, priority 2014, dated 2018).)
